The test system of this data set is Patient 2 (total gastrectomy, severe hypoglycemia events). The data set is described as follows: Patient 2 case history: prior pharmacotherapy. The class given is in vivo, human. Conditions: Patient 2, before trial participation. An excerpt: The patient had been placed on a liquid diet for 6 weeks after surgery and had initially lost 20 lbs. but otherwise fared well in the immediate postoperative period. […] The meals caused pain, gastrointestinal symptoms, and frequent diarrhea (per patient report). The patient also complained of weakness, lethargy and general feeling of despondency. […] They began to experience severe hypoglycemia events, including multiple episodes of loss of consciousness with requirement for emergency medical assistance. […] The patient was referred for trial participation.

Take `C[C@H]1O[C@H](O[C@H]2[C@H](O)[C@@H](O)[C@@H](O[C@H]3[C@H](O)[C@@H](O)C(O)O[C@@H]3CO)O[C@@H]2CO)[C@H](O)[C@@H](O)[C@@H]1N[C@H]1C=C(CO)[C@@H](O)[C@H](O)[C@H]1O` (stereo partly shown) [acarbose]: the gastrointestinal symptoms result is “worsening of gastrointestinal symptoms”.
